Consider one compound from patent publication US20100047306A1, “PHARMACEUTICAL COMPOSITIONS COMPRISING BISPHOSPONATES” (NOVARTIS AG, priority 2006, published 2010).

For the data set, the system named is Wistar rats. Briefly: Tolerability study of calcium zoledronate microparticles in rats after s.c. administration (skin fold thickness). In kind it is in vivo, rat. The settings on record: s.c. injection of suspension, 60 microgram, female Wistar rats. On the procedure: The microparticles of Examples 2 and 3 are suspended in a vehicle containing sodium carboxy methylcellulose, D-mannitol, Pluronics F68 and water for injection. 200 microliters of these suspensions were injected subcutaneously to the shaved skin at the left dorsal side of 8 weeks old female virgin Wistar rats (body weight approximately 220 g). In this way 1 mg dose (per animal) of zoledronic acid of the 15% calcium zoledronate microparticles (Example 3) and 2 mg dose (per animal) of zoledronic acid of the 10% calcium zoledronate microparticles (Example 2) were applied to a group of 6 animals per formulation. The thickness of the skin will be measured by a micro-caliper at the side of injection and the contra-lateral non-injected side. As reference a suspension of non-encapsulated drug substance is injected in a dose of 60 microgram. In addition, placebo microparticles made out of PLGA 75:25 (IV 0.68 dL/g) are also injected as control.

Regarding `O=P([O-])(O)C(O)(Cn1ccnc1)P(=O)([O-])O.[Ca+2]` [non-encapsulated drug substance, calcium zoledronate], the “swelling of the skin / local skin irritation” value was “strong swelling of the skin”.
